Measured values taken from US4613607A, “Medicaments based on derivatives of 1-(4-quinolyl)-2-(4-piperidyl)-ethanol or 1-(4-quinolyl)-3-(4-piperidyl)-propanol” (Pharmuka Laboratoires, priority 1980, dated 1986).
Structures can show the parent of a compound that is named as a salt. Where two headings read alike, the source gives them in different places.

Experiments:
[1] = tested on: fibrillations caused by an inhalation of chloroform; assay: Chloroform test on the mouse (protection against fibrillations caused by inhalation of chloroform); type: in vivo; settings: ip, 20 min, read-out: Antiarhythmic activity, chloroform test on the mouse, AD50
Method: The product to be tested was administered intraperitoneally 20 minutes before chloroformic intoxication and the possible protection against the arhythmia was shown by recording of the electrocardiogram, which was effected from the appearance of the apnoea. The activity of the products is expressed by an AD50 (dose of product in mg/kg which protects 50% of the animals).

[2] = Acute toxicity to mice, intravenous; settings: in vivo, male mouse DC1, i.v., 3 days observation
Description: Toxicological properties of the compounds of formula (I): […]
The acute toxicities of the compounds of formula (I) (see results in the above Table) have been determined on the male mouse DC1 (Charles River), by the intravenous method. The LD50 have been calculated, after 3 days observation, by the cumulative method of J. J. Reed and H. Muench (Amer. J. Hyg., 27, 493, 1938).

[3] = tested on: ventricular arhythmia caused by the aconitine; assay: Aconitine test on the rat (delay of ventricular arhythmia caused by perfused aconitine); type: in vivo; settings: iv, read-out: Antiarhythmic activity, aconitine test on the rat, ED50
Method: The principle of the method rests on the induction time of the ventricular arhythmia caused by the aconitine which is slowly fed by perfusion into rats. An antiarhythmic substance retards the appearance of the arhythmia and the delay is proportional to the activity of the substance.
Groups of 5 male rats were used. An individual anesthesia was effected (10% urethane: 1 g/kg/ip) in order to permit a catheterization of the vein of the penis. The electrocardiogram was recorded. At time T=0 the substance studied was injected in the form of an aqueous solution, at the rate of 2.5 ml of solution per kg in 30 seconds. At time T=60 seconds, say 30 seconds after the end of the injection, the aconitine was perfused at the rate of 20 μg per minute up to the appearance of supraventricular extra systoles. The time of perfusion of the aconitine was noted.
The results are expressed by an ED50, which is the dose of product, in mg/kg, increasing by 50% the time of perfusion of the aconitine in comparison with the perfusion time of aconitine for the control animals.

[4] = dose which protects 50% of the animals, intraperitoneal, 20 minutes before chloroform

Row | SMILES | ED50 [1] [mg/kg] | LD50 at 72 h [2] [mg/kg] | ED50 [3] [mg/kg] | ED50 [1, 4] [mg/kg]
1 | C=C[C@H]1CNCC[C@H]1CCC(O)c1ccnc2ccc(OC)cc12 (mixture of isomers) [Example 5, Mixture of 3-[3(R)-ETHENYL 4(R)-PIPERIDYL]-1-(6-METHOXY-4-QUINOLYL)-1-(R)-PROPANOL and 3-[3(R)-ETHENYL 4(R)-PIPERIDYL]-1-(6-METHOXY-4-QUINOLYL)-1(S)-PROPANOL] | 3 | 21.5 | 0.44 | –
2 | OC(CCC1CCNCC1)c1cc(-c2ccccc2)nc2ccccc12 (racemic) [Example 4, 1-(2-PHENYL-4-QUINOLYL)-3-(4-PIPERIDYL)-1-PROPANOL] | 2.5 | 21 | 1.22 | –
3 | CC(C)(C)c1cc(C(O)CCC2CCNCC2)c2ccccc2n1 (racemic) [Example 12, 1-[2-(1,1-DIMETHYL-ETHYL)-4-QUINOLYL]-3-(4-PIPERIDYL)-1-PROPANOL] | – | 26 | 0.8 | –
4 | CC[C@H]1CNCC[C@H]1CC[C@@H](O)c1ccnc2ccc(OC)cc12 [8 (1(R)-propanol isomer)] | – | 29 | 0.65 | 2.5
5 | CC[C@H]1CNCC[C@H]1CC[C@H](O)c1ccnc2ccc(OC)cc12 [8 (1(S)-propanol isomer)] | – | 17 | 0.58 | 2.5
6 | C=C[C@H]1CN(C)CC[C@H]1CC[C@H](O)c1ccnc2ccc(OC)cc12 [9 (3(R)-ethenyl isomer)] | – | 19 | 1 | 5
7 | C=C[C@@H]1CN(C)CC[C@H]1CC[C@H](O)c1ccnc2ccc(OC)cc12 [9 (3(S)-ethenyl isomer)] | – | 33 | 1.4 | > 5
8 | C=C[C@H]1CNCC[C@H]1CC[C@H](O)c1ccnc2ccc(OC)cc12 [Example 6, 3-[3(R)-ETHENYL 4(R)-PIPERIDYL]-1-(6-METHOXY-4-QUINOLYL)-1(S)-PROPANOL] | 3 | 20.3 | 0.43 | –
9 | C=C[C@H]1CNCC[C@H]1CC[C@@H](O)c1ccnc2ccc(OC)cc12 [Example 7, 3-[3(R)-ETHENYL 4(R)-PIPERIDYL]-1-(6-METHOXY-4-QUINOLYL)-1(R)-PROPANOL] | 3 | 33 | 0.45 | –
10 | C=C[C@H]1C[N@@]2CC[C@H]1C[C@@H]2[C@@H](O)c1ccnc2ccc(OC)cc12 [Quinidine sulfate, reference compound] | – | 60 | 7.5 | 18
